Values of other authors, collected in patent EP0116853A1, “Pyridazinones, processes for preparing them, therapeutical compositions containing these compounds and their use” (BASF Aktiengesellschaft, priority 1983, dated 1984).

Details: in contrast to the corresponding 4,5-dihydro compound

CC(=O)Nc1ccc(-c2n[nH]c(=O)cc2C)cc1 [6-(p-Acetylamino-phenyl)-5-methyl-3(2H)-pyridazinon]
blutdrucksenkende Wirkung: keine blutdrucksenkende Wirkung
